These are literature values, as cited in US20080019975A1, “Novel Regimens for Treating Diseases and Disorders” (BioAssets Development Corporation, priority 2006, published 2008).

This series deals with sciatica patients. Particulars: IV administration, blinded trial versus placebo saline infusion.

With infliximab, the “difference between patients treated with the drug versus placebo saline infusion” value was “failed to show a difference”.
